Measurements as given in publication PMC12935787, “Clinical pharmacokinetics and pharmacometabolomics of Andrographis paniculata capsules: Bridging drug disposition and metabolic response to precision medicine” (Naunyn-Schmiedeberg's Archives of Pharmacology, 2025).
Where two headings read alike, the source gives them in different places.

Columns and labels:
[1] = Clinical pharmacokinetics, plasma LC-MS/MS after single oral dose of AP capsules; assay type: in vivo, human (healthy volunteers); conditions: for concentration at 6 h / concentration at 8 h / concentration at 10 h / concentration at 12 h / concentration at 24 h / concentration at 0 h / concentration at 0.5 h / concentration at 1 h / concentration at 1.5 h / concentration at 2 h / concentration at 2.5 h / concentration at 3 h / concentration at 3.5 h / concentration at 4 h / concentration at 5 h: oral, 2000 mg; for concentration at 6 h / concentration at 8 h / concentration at 10 h / concentration at 12 h / concentration at 24 h / concentration at 0 h / concentration at 0.5 h / concentration at 1 h / concentration at 1.5 h / concentration at 2 h / concentration at 2.5 h / concentration at 3 h / concentration at 3.5 h / concentration at 4 h / concentration at 5 h / Mean concentration: 2000 mg AP capsules
Description: The protocol was published (Tee et al. [2022]).
Seven calibrators ranging from 1, 2, 5,10, 20, 50, and 100 ng mL^−1 were prepared. Frozen plasma was thawed, vortexed-mixes, and processed via protein precipitation: 50 µL plasma plus 100 µL 0.01% ammonia in methanol were vortexed (20 s), centrifuged (14800 rpm, 5 min) and […] supernatant was transferred to 2 mL vials with inserts. LC–MS/MS injection volume: 10 µL. The separation used a Phenomenex Gemini-NX C18 column (150 × 2.1 mm, 5 μm) with 0.01% ammonia (A) and acetonitrile/methanol (1:1, B) as mobile phases (0.30 mL min^-1). The gradient program: 40% B (0 min), linear increase to 95% B (3 min), hold to 5 min, sharp decrease to 10% B (5.01 min), hold to 7 min, return to 40% B (7.01 min), and re-equilibration to 10 min. Mass detection employed an LCMS-8060NX triple quadrupole with heated ESI in negative mode, monitoring specific MRM transitions: andrographolide (349.3 → 331.2/287.1), 14-deoxyandrographolide (331.2 → 108.0/301.1), and neoandrographolide (479.1 → 317.4/161.1).
Pharmacokinetic parameters were determined from plasma samples (5 subjects, 15 time points) analyzed via LC–MS/MS (Shimadzu 8060NX). […] Specific MRM transitions for andrographolide, 14-deoxyandrographolide, and neoandrographolide in plasma samples of subjects are illustrated in Figure S3. […] The dose-dependent concentration–time curves, pharmacokinetics profiles (Fig. 2a, b and c) and comprehensive individual PK data (Table S4) provide a foundation for developing personalized AP dosing regimens, supporting its precision medicine potential.

[2] = parameters: method as in Panossian et al. [2000]; conditions: single dose of AP equivalent to 20 mg andrographolide; ref Panossian et al. [2000]; cited from earlier work
[3] = human, plasma, 2000 mg AP capsules oral, fasting, n=5

What does the source list for C=C1CC[C@@H]2[C@](C)(CO)[C@H](O)CC[C@@]2(C)[C@@H]1C/C=C1/C(=O)OC[C@H]1O [andrographolide]?
concentration at 6 h ([1]; human, plasma, S4, 6.00 h, read-out: Plasma concentration): 0 ng/mL; concentration at 8 h ([1]; human, plasma, S4, 8.00 h, read-out: Plasma concentration): 0 ng/mL; concentration at 10 h ([1]; human, plasma, S4, 10.00 h, read-out: Plasma concentration): 0 ng/mL; concentration at 12 h ([1]; human, plasma, S4, 12.00 h, read-out: Plasma concentration): 0 ng/mL; concentration at 24 h ([1]; human, plasma, S4, 24.00 h, read-out: Plasma concentration): 0 ng/mL; concentration at 0 h ([1]; human, plasma, S5, 0.00 h, read-out: Plasma concentration): 0 ng/mL; concentration at 0.5 h ([1]; human, plasma, S5, 0.50 h, read-out: Plasma concentration): 0 ng/mL; concentration at 1 h ([1]; human, plasma, S5, 1.00 h, read-out: Plasma concentration): 0 ng/mL; concentration at 1.5 h ([1]; human, plasma, S5, 1.50 h, read-out: Plasma concentration): 2.52 ng/mL; concentration at 2 h ([1]; human, plasma, S5, 2.00 h, read-out: Plasma concentration): 3.77 ng/mL; concentration at 2.5 h ([1]; human, plasma, S5, 2.50 h, read-out: Plasma concentration): 3.17 ng/mL; concentration at 3 h ([1]; human, plasma, S5, 3.00 h, read-out: Plasma concentration): 2.38 ng/mL; concentration at 3.5 h ([1]; human, plasma, S5, 3.50 h, read-out: Plasma concentration): 1.59 ng/mL; concentration at 4 h ([1]; human, plasma, S5, 4.00 h, read-out: Plasma concentration): 0.54 ng/mL; concentration at 5 h ([1]; human, plasma, S5, 5.00 h, read-out: Plasma concentration): 1.62 ng/mL; concentration at 6 h ([1]; human, plasma, S5, 6.00 h, read-out: Plasma concentration): 1.12 ng/mL; concentration at 8 h ([1]; human, plasma, S5, 8.00 h, read-out: Plasma concentration): 0 ng/mL; concentration at 10 h ([1]; human, plasma, S5, 10.00 h, read-out: Plasma concentration): 0 ng/mL; concentration at 12 h ([1]; human, plasma, S5, 12.00 h, read-out: Plasma concentration): 0 ng/mL; concentration at 24 h ([1]; human, plasma, S5, 24.00 h, read-out: Plasma concentration): 0 ng/mL; concentration at 0 h ([1]; human, plasma, mean n=5, 0.00 h, read-out: Mean concentration): 0 ng/mL; concentration at 0.5 h ([1]; human, plasma, mean n=5, 0.50 h, read-out: Mean concentration): 8.62 ng/mL; concentration at 1 h ([1]; human, plasma, mean n=5, 1.00 h, read-out: Mean concentration): 7.7 ng/mL; concentration at 1.5 h ([1]; human, plasma, mean n=5, 1.50 h, read-out: Mean concentration): 10.2 ng/mL; concentration at 2 h ([1]; human, plasma, mean n=5, 2.00 h, read-out: Mean concentration): 6.21 ng/mL; concentration at 2.5 h ([1]; human, plasma, mean n=5, 2.50 h, read-out: Mean concentration): 3.4 ng/mL; concentration at 3 h ([1]; human, plasma, mean n=5, 3.00 h, read-out: Mean concentration): 3.02 ng/mL; concentration at 3.5 h ([1]; human, plasma, mean n=5, 3.50 h, read-out: Mean concentration): 1.3 ng/mL; concentration at 4 h ([1]; human, plasma, mean n=5, 4.00 h, read-out: Mean concentration): 0.11 ng/mL; concentration at 5 h ([1]; human, plasma, mean n=5, 5.00 h, read-out: Mean concentration): 0.32 ng/mL; concentration at 6 h ([1]; human, plasma, mean n=5, 6.00 h, read-out: Mean concentration): 0.22 ng/mL; concentration at 8 h ([1]; human, plasma, mean n=5, 8.00 h, read-out: Mean concentration): 0 ng/mL; concentration at 10 h ([1]; human, plasma, mean n=5, 10.00 h, read-out: Mean concentration): 0 ng/mL; concentration at 12 h ([1]; human, plasma, mean n=5, 12.00 h, read-out: Mean concentration): 0 ng/mL; concentration at 24 h ([1]; human, plasma, mean n=5, 24.00 h, read-out: Mean concentration): 0 ng/mL; AUC(0-inf) [1, 3]: 20.9 ng·h/mL; AUC(0-t) [1, 3]: 20.7 ng·h/mL; Cmax [1, 3]: 10.2 ng/mL; Tmax [1, 3]: 1.5 h; half-life [1, 3]: 0.72 h; Mean concentration ([1]; mean n=5, 0.00 h): 0 ng/mL; Mean concentration ([1]; mean n=5, 0.50 h): 8.622 ng/mL; Mean concentration ([1]; mean n=5, 1.00 h): 7.6996 ng/mL; Mean concentration ([1]; mean n=5, 1.50 h): 10.145 ng/mL; Mean concentration ([1]; mean n=5, 2.00 h): 6.2104 ng/mL; Mean concentration ([1]; mean n=5, 2.50 h): 3.3999 ng/mL; Mean concentration ([1]; mean n=5, 3.00 h): 3.0233 ng/mL; Mean concentration ([1]; mean n=5, 3.50 h): 1.2987 ng/mL; Mean concentration ([1]; mean n=5, 4.00 h): 0.1073 ng/mL; Mean concentration ([1]; mean n=5, 5.00 h): 0.3249 ng/mL; Mean concentration ([1]; mean n=5, 6.00 h): 0.2247 ng/mL; Mean concentration ([1]; mean n=5, 8.00 h): 0 ng/mL; Mean concentration ([1]; mean n=5, 10.00 h): 0 ng/mL; Mean concentration ([1]; mean n=5, 12.00 h): 0 ng/mL; Mean concentration ([1]; mean n=5, 24.00 h): 0 ng/mL; Tmax, previously reported [2]: 1.5 to 2 h
